The values below come from PMC5654082 (Malaria Journal, 2017).

Each structure is given as a SMILES string. Counter-ions that a name gives are not always drawn. Like-named read-outs stand apart in the source and are kept apart here. Marks after values point to notes of the source that are not given here. Where only a bound is given, the exact number is not on record here.

Data set [1] is described as follows: Maximum plasma concentration from in vivo pharmacokinetic studies after therapeutic dosing. The conditions noted are these: human, the literature Cmax (ng/mL) of Table 2 expressed in µM. From the text:
As Cmax the (geometric) mean or median maximum plasma concentrations obtained from previous in vivo pharmacokinetic studies after therapeutic dosing was used.

The conditions of data set [2]: Thai children with uncomplicated multidrug-resistant falciparum malaria; (geometric) mean or median; cited from earlier work.
On the set-up of data set [3]: method as in earlier work. The conditions noted are these: unchanged PG; cited from earlier work.
The target of the next data set is T1, human OCT2 (Homo sapiens, UniProt O15244).
T1 construct: host or cells: HEK293, baculovirus transduction (CMV promoter), transient
T1 sequence (O15244 1-555): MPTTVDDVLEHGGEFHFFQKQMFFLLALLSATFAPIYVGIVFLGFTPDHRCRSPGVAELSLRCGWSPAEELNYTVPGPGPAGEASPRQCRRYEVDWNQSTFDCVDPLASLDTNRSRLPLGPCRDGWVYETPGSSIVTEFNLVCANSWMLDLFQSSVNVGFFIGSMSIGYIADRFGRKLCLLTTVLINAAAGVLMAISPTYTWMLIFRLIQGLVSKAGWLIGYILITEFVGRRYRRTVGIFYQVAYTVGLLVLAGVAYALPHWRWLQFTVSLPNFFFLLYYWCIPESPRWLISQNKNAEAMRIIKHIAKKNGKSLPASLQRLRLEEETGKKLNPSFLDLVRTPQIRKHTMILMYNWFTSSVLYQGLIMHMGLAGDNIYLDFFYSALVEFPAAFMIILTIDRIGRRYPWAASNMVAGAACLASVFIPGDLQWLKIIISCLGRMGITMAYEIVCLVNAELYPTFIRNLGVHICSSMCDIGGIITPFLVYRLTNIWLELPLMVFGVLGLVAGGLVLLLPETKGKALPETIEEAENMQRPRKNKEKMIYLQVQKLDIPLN
In words: Inhibition of OCT2-mediated ASP uptake in transduced HEK293 cells. The conditions noted are these: 10 µM ASP, 10 min, 37 °C. Type of data set: cell-based. As to the method:
HEK293 cells were modified to transiently express (a combination of) human OCT1, OCT2, MATE1, MATE2-K, or eYFP. Briefly, cDNA of the respective genes was cloned downstream of a CMV promoter into a baculovirus, of which passage three was used to transduce HEK293 cells. These cells were seeded in poly-D-lysine coated 24- or 96-wells plates and grown in a 37 °C incubator at 5% CO2. […] After 24 h, cells were transduced with 30 µL virus (10 µL virus + 20 µL complete medium in case of 96-wells plates) or 2 × 15 µL virus for cells that required simultaneous expression of two transporters. Finally, 195 µL sodium butyrate (45 µL for 96-wells plates) was added to a final concentration of 2 mM to enhance protein expression.
AMO (10 mM), ASP (1 mM), CQ (10 mM), PQ (10 mM) and PG (10 mM) were dissolved in MilliQ water. ART (10 mM), ATO (10 mM), DHA (10 mM), LUM (10 mM), MQ (10 mM), NMQ (20 mM), PYR (10 mM), QN (10 mM) were dissolved in DMSO. All compound stocks were stored at − 20 °C. Inhibition of OCT1- or OCT2-mediated ASP uptake by anti-malarials was performed in poly-D-lysine coated 96-wells plates 2 or 3 days following HEK293 cell transduction. In short, cells were washed with 125 µL 37 °C HBSS containing 10 mM HEPES, pH 7.4. […] ASP transport was stopped by washing with 125 µL ice-cold HBSS-HEPES buffer supplemented with 0.5% BSA.
For each compound, a range of seven concentrations was used to determine the concentration at which ASP uptake was inhibited half maximally (IC50). At least three independent experiments (4 for QN) were performed for each drug in triplicate as described above. […] To generate the final dose–response inhibition curve per anti-malarial, percentage of uptake was averaged for each drug concentration per experiment and the resulting mean ± SEM corresponding to three or four independent experiments were plotted.

For data set [4] the following is noted: cited from earlier work.

A word on the Cmax: it is the maximum level reached in the sampled fluid or tissue. The term IC50 denotes the point on the concentration scale where inhibition reaches its midpoint. With `[H]/N=C(\N/C(=N/[H])Nc1ccc(Cl)cc1)NC(C)C` [Proguanil, proguanil hydrochloride], the values for the Cmax in data set [1] and in data set [2] were 1.2 µM and 306^d [47] ng/mL, respectively. For the same molecule, the “Excretion into the urine” value in data set [3] was less than 40%. The IC50 on human OCT2 (seven concentrations) amounted to 13 µM. Besides, on human OCT2 (50 µM anti-malarial, relative to solvent control fixed at 100%), the “Relative ASP uptake (OCT2-mediated)” value worked out at 19 ± 7%. In addition, the Unbound fraction in data set [4] is 0.25 [39].
